Source: article PMC7717710, “Synthesis, computational studies and assessment of in vitro inhibitory activity of umbelliferon-based compounds against tumour-associated carbonic anhydrase isoforms IX and XII” (Journal of Enzyme Inhibition and Medicinal Chemistry, 2020)
Like-named read-outs stand apart in the source and are kept apart here.

Tests used:
hCA II [1] = target: T1, hCA II (Homo sapiens, UniProt P00918); set-up: method as in PMID 29197732; conditions: reference compounds; read-out: Inhibition data (Ki) hCA II; cited from earlier work
T1 construct: made in house

hCA I [2] = target: T2, hCA I (Homo sapiens, UniProt P00915); set-up: method as in PMID 29197732; conditions: reference compounds; read-out: Inhibition data (Ki) hCA I; cited from earlier work
T2 construct: made in house

hCA IX = target: T3, hCA IX (Homo sapiens, UniProt Q16790); assay: stopped-flow CO2 hydrase assay, hCA IX; format: biochemical; conditions: recombinant hCA IX; stopped-flow CO2 hydration; 15 min preincubation; errors ± 10%, 3 assays; read-out: Inhibition data (Ki) hCA IX
T3 construct: made in house
Description: (§1) An applied photophysics stopped-flow instrument has been used for assaying the CA catalysed CO2 hydration activity. Phenol red (at a concentration of 0.2 mM) has been used as an indicator, working at the absorbance maximum of 557 nm, with 10–20 mM Hepes (pH 7.5) or Tris (pH 8.3) as buffers, and 20 mM Na2SO4 or 20 mM NaClO4 (for maintaining constant the ionic strength), following the initial rates of the CA-catalysed CO2 hydration reaction for a period of 10–100 s. The CO2 concentrations ranged from 1.7 to 17 mM for the determination of the kinetic parameters and inhibition constants. For each inhibitor, at least six traces of the initial 5-10% of the reaction have been used for determining the initial velocity. The uncatalyzed rates were determined in the same manner and subtracted from the total observed rates. Stock solutions of inhibitor (10 mM) were prepared in distilled-deionized water and dilutions up to 0.01 nM were done thereafter with distilled-deionized water. Inhibitor and enzyme solutions were preincubated together for 15 min at room temperature prior to assay to allow for the formation of the E–I complex. The inhibition constants were obtained by non-linear least-squares methods using PRISM 3, as reported earlier and represent the mean from at least three different determinations. CA isoforms were recombinant ones obtained as reported earlier by this group.
(§2) This small series of coumarin derivatives 7–11, 15–17 were subjected to the stopped-flow CO2 hydrase assays to evaluate the binding affinity against the tumour-associated hCA IX and XII over ubiquitous isoforms hCA I and II.

hCA I [3] = target: T2, hCA I; assay: stopped-flow CO2 hydrase assay, hCA I; format: biochemical; conditions: recombinant hCA I; stopped-flow CO2 hydration; 15 min preincubation; errors ± 10%, 3 assays; read-out: Inhibition data (Ki) hCA I
Description: as §1, §2

hCA XII = target: T4, hCA XII (Homo sapiens, UniProt O43570); assay: stopped-flow CO2 hydrase assay, hCA XII; format: biochemical; conditions: for Ki: recombinant hCA XII, stopped-flow CO2 hydration, 15 min preincubation, errors ± 10%, 3 assays, read-out: Inhibition data (Ki) hCA XII
T4 construct: made in house
Description: as §1, §2

hCA II [4] = target: T1, hCA II; assay: stopped-flow CO2 hydrase assay, hCA II; format: biochemical; conditions: recombinant hCA II; stopped-flow CO2 hydration; 15 min preincubation; errors ± 10%, 3 assays; read-out: Inhibition data (Ki) hCA II
Description: as §1, §2

T2 sequence (P00915 whole entry): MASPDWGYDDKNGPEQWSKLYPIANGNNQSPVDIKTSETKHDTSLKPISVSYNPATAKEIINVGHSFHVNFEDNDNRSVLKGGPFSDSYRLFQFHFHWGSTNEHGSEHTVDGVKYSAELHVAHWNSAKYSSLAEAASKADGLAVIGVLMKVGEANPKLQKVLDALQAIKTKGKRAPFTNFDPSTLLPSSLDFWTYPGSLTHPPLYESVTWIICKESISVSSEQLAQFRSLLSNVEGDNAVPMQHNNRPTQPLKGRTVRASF
T4 sequence (O43570 25-354): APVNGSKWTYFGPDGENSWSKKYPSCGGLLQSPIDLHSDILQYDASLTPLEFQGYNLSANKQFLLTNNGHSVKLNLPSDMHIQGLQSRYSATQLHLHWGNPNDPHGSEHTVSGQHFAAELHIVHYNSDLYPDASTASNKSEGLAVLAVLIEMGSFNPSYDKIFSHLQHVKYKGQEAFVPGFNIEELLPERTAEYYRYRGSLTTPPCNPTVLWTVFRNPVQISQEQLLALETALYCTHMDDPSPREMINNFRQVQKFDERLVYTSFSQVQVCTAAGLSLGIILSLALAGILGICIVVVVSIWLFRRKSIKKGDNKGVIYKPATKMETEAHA

| SMILES | Ki (hCA IX) [nM] | Ki (hCA I [3]) [nM] | melting point [°C] | Ki (hCA XII) [nM] | Ki (hCA II [4]) [nM] | fold less active/efficient towards hCA XII than parent compound 3 (hCA XII; ratio of Ki values versus compound 3) [fold] | Ki (hCA II [1]) [nM] | Ki (hCA I [2]) [nM] |
| --- | --- | --- | --- | --- | --- | --- | --- | --- |
| O=c1cc(-c2ccccc2)c2ccc(O)cc2o1 [compound 3, 7-hydroxy-4-phenyl-2H-chromen-2-one] | – | – | – | – | – | – | > 10000 | > 10000 |
| Cc1c(O)ccc2c(-c3ccc(N)cc3)cc(=O)oc12 [compound 4, 4-(4-aminophenyl)-7-hydroxy-8-methyl-2H-chromen-2-one] | – | – | – | – | – | – | > 10000 | > 10000 |
| CC(=O)Oc1ccc2c(-c3ccccc3)cc(=O)oc2c1 [compound 7, 2-oxo-4-phenyl-2H-chromen-7-yl acetate] | 56.2 | > 10000 | 129 to 131 | 734 | > 10000 | – | – | – |
| O=c1cc(-c2ccc([N+](=O)[O-])cc2)c2ccc(O)c(Cl)c2o1 [compound 16, 8-Chloro-7-hydroxy-4-(4-nitrophenyl)-2H-chromen-2-one] | – | – | 303 to 305 | – | – | – | – | – |

The remaining molecules from weak to strong by Ki (hCA IX), led by results:

| Ki (hCA IX) [nM] | Ki (hCA I [3]) [nM] | melting point [°C] | Ki (hCA XII) [nM] | Ki (hCA II [4]) [nM] | fold less active/efficient towards hCA XII than parent compound 3 (hCA XII; ratio of Ki values versus compound 3) [fold] | SMILES | Ki (hCA II [1]) [nM] | Ki (hCA I [2]) [nM] |
| --- | --- | --- | --- | --- | --- | --- | --- | --- |
| 3040 | > 10000 | 172 to 174 | 868 | > 10000 | 10 | CCC(=O)c1c(O)ccc2c(-c3ccccc3)cc(=O)oc12 [compound 11, 7-Hydroxy-4-phenyl-8-propanoyl-2H-chromen-2-one] | – | – |
| 261 | > 10000 | 214 to 215 | 32 | > 10000 | – | O=c1cc(-c2ccccc2)c2ccc(O)c(Cl)c2o1 [compound 15, 8-Chloro-7-hydroxy-4-phenyl-2H-chromen-2-one] | – | – |
| 180 | > 10000 | 313 to 315 | 29.3 | > 10000 | – | Nc1ccc(-c2cc(=O)oc3c(Cl)c(O)ccc23)cc1 [compound 17, 4-(4-aminophenyl)-8-chloro-7-hydroxy-2H-chromen-2-one] | – | – |
| 177 | > 10000 | – | 24.9 | > 10000 | – | CC(=O)c1c(O)ccc2c(-c3ccccc3)cc(=O)oc12 [compound 10, 8-Acetyl-7-hydroxy-4-phenyl-2H-chromen-2-one] | – | – |
| 97.8 | > 10000 | 172 to 174 | 523 | > 10000 | – | CCC(=O)Oc1ccc2c(-c3ccccc3)cc(=O)oc2c1 [compound 8, 2-Oxo-4-phenyl-2H-chromen-7-yl propionate] | – | – |
| 21.8 | > 10000 | – | 385 | > 10000 | – | O=C(Oc1ccc2c(-c3ccccc3)cc(=O)oc2c1)c1ccccc1 [compound 9, 2-Oxo-4-phenyl-2H-chromen-7-yl benzoate] | – | – |
